Earlier results as cited in patent US20110182952A1, “DRUG DELIVERY FROM EMBOLIC AGENTS” (BIOCOMPATIBLES UK LIMITED, priority 2004, published 2011).

Settings: uterine artery embolization for leiomyomata

CCN(CC)CC(=O)Nc1c(C)cccc1C [lidocaine]
arterial spasm on intraarterial use: causes a large amount of spasm
